Reference: PubChem BioAssay AID1259407 (Chemical Carcinogenesis Research Information System (CCRIS), 2018)
The source made the active and inactive calls. How the calls were made is not given here.

Test system: CCRIS mutagenicity, Ames/micronucleus/aberration tests
Test: CCRIS mutagenicity studies
[1] = Test System: AMES SALMONELLA TYPHIMURIUM, Strain/Indicator: TA98, Metabolic Activation: NONE, Method: STANDARD PLATE
[2] = Test System: AMES SALMONELLA TYPHIMURIUM, Strain/Indicator: TA98, Metabolic Activation: RAT, LIVER, S-9, AROCLOR 1254, Method: STANDARD PLATE
[3] = Test System: AMES SALMONELLA TYPHIMURIUM, Strain/Indicator: TA98, Metabolic Activation: NONE, Method: PREINCUBATION
[4] = Test System: AMES SALMONELLA TYPHIMURIUM, Strain/Indicator: TA100, Metabolic Activation: NONE, Method: PREINCUBATION

SMILES: O=P(O)(O)OCC(O)CO (stereo not given)
- mutagenic call [1]: inactive; negative
- mutagenic call [2]: inactive; negative
- mutagenic call (Test System: AMES SALMONELLA TYPHIMURIUM, Strain/Indicator: TA100, Metabolic Activation: NONE, Method: STANDARD PLATE): inactive; negative
- mutagenic call (Test System: AMES SALMONELLA TYPHIMURIUM, Strain/Indicator: TA100, Metabolic Activation: RAT, LIVER, S-9, AROCLOR 1254, Method: STANDARD PLATE): inactive; negative
- mutagenic call (Test System: AMES SALMONELLA TYPHIMURIUM, Strain/Indicator: TA1535, Metabolic Activation: NONE, Method: STANDARD PLATE): inactive; negative
- mutagenic call (Test System: AMES SALMONELLA TYPHIMURIUM, Strain/Indicator: TA1535, Metabolic Activation: RAT, LIVER, S-9, AROCLOR 1254, Method: STANDARD PLATE): inactive; negative
- mutagenic call (Test System: AMES SALMONELLA TYPHIMURIUM, Strain/Indicator: TA1537, Metabolic Activation: NONE, Method: STANDARD PLATE): inactive; negative
- mutagenic call (Test System: AMES SALMONELLA TYPHIMURIUM, Strain/Indicator: TA1537, Metabolic Activation: RAT, LIVER, S-9, AROCLOR 1254, Method: STANDARD PLATE): inactive; negative
- mutagenic call (Test System: AMES SALMONELLA TYPHIMURIUM, Strain/Indicator: TA1538, Metabolic Activation: NONE, Method: STANDARD PLATE): inactive; negative
- mutagenic call (Test System: AMES SALMONELLA TYPHIMURIUM, Strain/Indicator: TA1538, Metabolic Activation: RAT, LIVER, S-9, AROCLOR 1254, Method: STANDARD PLATE): inactive; negative
- mutagenic call (Test System: E. COLI, Strain/Indicator: WP2, Metabolic Activation: NONE, Method: STANDARD PLATE): inactive; negative
- mutagenic call (Test System: E. COLI, Strain/Indicator: WP2, Metabolic Activation: RAT, LIVER, S-9, AROCLOR 1254, Method: STANDARD PLATE): inactive; negative

SMILES: Cc1n[nH]c(=O)[nH]c1=O
- mutagenic call (Test System: AMES SALMONELLA TYPHIMURIUM, Strain/Indicator: TA98, Metabolic Activation: MAIZE SEEDLING, S-14, Method: PREINCUBATION): inactive; negative
- mutagenic call (Test System: AMES SALMONELLA TYPHIMURIUM, Strain/Indicator: TA98, Metabolic Activation: MOUSE, LIVER, S-9, Method: PREINCUBATION): inactive; negative
- mutagenic call [3]: inactive; negative
- mutagenic call (Test System: AMES SALMONELLA TYPHIMURIUM, Strain/Indicator: TA100, Metabolic Activation: MAIZE SEEDLING, S-14, Method: PREINCUBATION): inactive; negative
- mutagenic call (Test System: AMES SALMONELLA TYPHIMURIUM, Strain/Indicator: TA100, Metabolic Activation: MOUSE, LIVER, S-9, Method: PREINCUBATION): inactive; negative
- mutagenic call [4]: inactive; negative
- mutagenic call (Test System: AMES SALMONELLA TYPHIMURIUM, Strain/Indicator: TA1535, Metabolic Activation: NONE, Method: PREINCUBATION): inactive; negative
- mutagenic call (Test System: AMES SALMONELLA TYPHIMURIUM, Strain/Indicator: TA1537, Metabolic Activation: NONE, Method: PREINCUBATION): inactive; negative
- mutagenic call (Test System: AMES SALMONELLA TYPHIMURIUM, Strain/Indicator: TA1538, Metabolic Activation: NONE, Method: PREINCUBATION): inactive; negative

SMILES: Nc1ncnc2nc(-c3ccc([N+](=O)[O-])cc3)[nH]c12
- mutagenic call (Test System: AMES SALMONELLA TYPHIMURIUM, Strain/Indicator: TA98(1,8-DNP), Metabolic Activation: NONE, Method: PREINCUBATION): active; positive
- mutagenic call (Test System: AMES SALMONELLA TYPHIMURIUM, Strain/Indicator: TA98(1,8-DNP), Metabolic Activation: RAT, LIVER, S-9, PCB, Method: PREINCUBATION): active; positive
- mutagenic call (Test System: AMES SALMONELLA TYPHIMURIUM, Strain/Indicator: TA98(NR), Metabolic Activation: NONE, Method: PREINCUBATION): active; positive
- mutagenic call (Test System: AMES SALMONELLA TYPHIMURIUM, Strain/Indicator: TA98(NR), Metabolic Activation: RAT, LIVER, S-9, PCB, Method: PREINCUBATION): active; positive
- mutagenic call [3]: active; positive
- mutagenic call (Test System: AMES SALMONELLA TYPHIMURIUM, Strain/Indicator: TA98, Metabolic Activation: RAT, LIVER, S-9, PCB, Method: PREINCUBATION): active; positive
- mutagenic call (Test System: AMES SALMONELLA TYPHIMURIUM, Strain/Indicator: TA100(1,8-DNP), Metabolic Activation: RAT, LIVER, S-9, PCB, Method: PREINCUBATION): inactive; negative
- mutagenic call (Test System: AMES SALMONELLA TYPHIMURIUM, Strain/Indicator: TA100(NR), Metabolic Activation: NONE, Method: PREINCUBATION): inactive; negative
- mutagenic call (Test System: AMES SALMONELLA TYPHIMURIUM, Strain/Indicator: TA100(NR), Metabolic Activation: RAT, LIVER, S-9, PCB, Method: PREINCUBATION): inactive; negative
- mutagenic call [4]: active; positive
- mutagenic call (Test System: AMES SALMONELLA TYPHIMURIUM, Strain/Indicator: TA100, Metabolic Activation: RAT, LIVER, S-9, PCB, Method: PREINCUBATION): active; positive
- mutagenic call (Test System: AMES SALMONELLA TYPHIMURIUM, Strain/Indicator: YG1020, Metabolic Activation: NONE, Method: PREINCUBATION): active; positive
- mutagenic call (Test System: AMES SALMONELLA TYPHIMURIUM, Strain/Indicator: YG1020, Metabolic Activation: RAT, LIVER, S-9, PCB, Method: PREINCUBATION): active; positive
- mutagenic call (Test System: AMES SALMONELLA TYPHIMURIUM, Strain/Indicator: YG1021, Metabolic Activation: NONE, Method: PREINCUBATION): active; positive
- mutagenic call (Test System: AMES SALMONELLA TYPHIMURIUM, Strain/Indicator: YG1021, Metabolic Activation: RAT, LIVER, S-9, PCB, Method: PREINCUBATION): active; positive
- mutagenic call (Test System: AMES SALMONELLA TYPHIMURIUM, Strain/Indicator: YG1024, Metabolic Activation: NONE, Method: PREINCUBATION): active; positive
- mutagenic call (Test System: AMES SALMONELLA TYPHIMURIUM, Strain/Indicator: YG1024, Metabolic Activation: RAT, LIVER, S-9, PCB, Method: PREINCUBATION): active; positive
- mutagenic call (Test System: AMES SALMONELLA TYPHIMURIUM, Strain/Indicator: YG1025, Metabolic Activation: NONE, Method: PREINCUBATION): active; positive
- mutagenic call (Test System: AMES SALMONELLA TYPHIMURIUM, Strain/Indicator: YG1025, Metabolic Activation: RAT, LIVER, S-9, PCB, Method: PREINCUBATION): active; positive
- mutagenic call (Test System: AMES SALMONELLA TYPHIMURIUM, Strain/Indicator: YG1026, Metabolic Activation: NONE, Method: PREINCUBATION): active; positive
- mutagenic call (Test System: AMES SALMONELLA TYPHIMURIUM, Strain/Indicator: YG1026, Metabolic Activation: RAT, LIVER, S-9, PCB, Method: PREINCUBATION): active; positive
- mutagenic call (Test System: AMES SALMONELLA TYPHIMURIUM, Strain/Indicator: YG1029, Metabolic Activation: NONE, Method: PREINCUBATION): active; positive
- mutagenic call (Test System: AMES SALMONELLA TYPHIMURIUM, Strain/Indicator: YG1029, Metabolic Activation: RAT, LIVER, S-9, PCB, Method: PREINCUBATION): active; positive

SMILES: C=CCN(CC=C)c1cc(NC(C)=O)c(N=Nc2c(Br)cc([N+](=O)[O-])cc2[N+](=O)[O-])cc1OC
- mutagenic call [1]: inactive; negative
- mutagenic call [2]: active; positive
- mutagenic call (Test System: AMES SALMONELLA TYPHIMURIUM, Strain/Indicator: YG1041, Metabolic Activation: NONE, Method: STANDARD PLATE): active; positive
- mutagenic call (Test System: AMES SALMONELLA TYPHIMURIUM, Strain/Indicator: YG1041, Metabolic Activation: RAT, LIVER, S-9, AROCLOR 1254, Method: STANDARD PLATE): active; positive

SMILES: O=[N+]([O-])c1cc2c3c(c1)CCc1c4c(cc(c1-3)CC2)CCCC4
- mutagenic call (Test System: AMES SALMONELLA TYPHIMURIUM, Strain/Indicator: TA98(1,8-DNP6), Metabolic Activation: NONE): active; positive
- mutagenic call (Test System: AMES SALMONELLA TYPHIMURIUM, Strain/Indicator: TA98(1,8-DNP6), Metabolic Activation: RAT, LIVER, S-9, AROCLOR 1254): active; positive
- mutagenic call (Test System: AMES SALMONELLA TYPHIMURIUM, Strain/Indicator: TA98(NR), Metabolic Activation: NONE): active; positive
- mutagenic call (Test System: AMES SALMONELLA TYPHIMURIUM, Strain/Indicator: TA98(NR), Metabolic Activation: RAT, LIVER, S-9, AROCLOR 1254): active; positive
- mutagenic call (Test System: AMES SALMONELLA TYPHIMURIUM, Strain/Indicator: TA98, Metabolic Activation: NONE): active; positive
- mutagenic call (Test System: AMES SALMONELLA TYPHIMURIUM, Strain/Indicator: TA98, Metabolic Activation: RAT, LIVER, S-9, AROCLOR 1254): active; positive
- mutagenic call (Test System: AMES SALMONELLA TYPHIMURIUM, Strain/Indicator: TA100(NR), Metabolic Activation: NONE): active; positive
- mutagenic call (Test System: AMES SALMONELLA TYPHIMURIUM, Strain/Indicator: TA100(NR), Metabolic Activation: RAT, LIVER, S-9, AROCLOR 1254): active; positive
- mutagenic call (Test System: AMES SALMONELLA TYPHIMURIUM, Strain/Indicator: TA100, Metabolic Activation: NONE): active; positive
- mutagenic call (Test System: AMES SALMONELLA TYPHIMURIUM, Strain/Indicator: TA100, Metabolic Activation: RAT, LIVER, S-9, AROCLOR 1254): active; positive
- mutagenic call (Test System: AMES SALMONELLA TYPHIMURIUM, Strain/Indicator: TA104, Metabolic Activation: NONE): active; positive
- mutagenic call (Test System: AMES SALMONELLA TYPHIMURIUM, Strain/Indicator: TA104, Metabolic Activation: RAT, LIVER, S-9, AROCLOR 1254): active; positive
